Experimental findings from patent publication US8822471B2, “Compounds, pharmaceutical compositions and uses thereof” (Boehringer Ingelheim International GmbH, priority 2011, dated 2014) are described below.

The target of this assay is T1, human GPR119 (Homo sapiens, UniProt Q8TDV5).
T1 construct: expression vector for human GPR119 cDNA (Acc. No. NP_848566); expressed in transfected cells
T1 sequence (Q8TDV5 1-335): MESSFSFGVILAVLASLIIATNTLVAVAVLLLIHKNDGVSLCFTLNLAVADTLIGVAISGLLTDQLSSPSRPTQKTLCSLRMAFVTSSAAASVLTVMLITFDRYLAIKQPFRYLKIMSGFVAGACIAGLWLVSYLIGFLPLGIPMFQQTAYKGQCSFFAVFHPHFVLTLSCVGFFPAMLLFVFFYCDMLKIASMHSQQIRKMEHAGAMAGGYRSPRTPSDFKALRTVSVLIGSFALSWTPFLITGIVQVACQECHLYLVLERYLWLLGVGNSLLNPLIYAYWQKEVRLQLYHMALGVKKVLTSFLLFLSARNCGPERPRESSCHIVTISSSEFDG
Kind of assay: AlphaScreen cAMP assay in MIN6 cells stably transfected with human GPR119. As to conditions: Min-6/hGPR119 cells, AlphaScreen cAMP Assay Kit, 45 minutes incubation at room temperature. The assay is classed as cell-based. On the procedure: The compounds of formula I according to the invention modulate the activity of the G-protein-coupled receptor GPR119. The effect of the compounds on the activation of GPR119 and on the stimulation of intracellular cAMP concentration is determined using the AlphaScreen cAMP Assay Kit (Cat. No. #6760625R) made by PerkinElmer.
MIN6 cells [Miyazaki J et al. Endocrinology. 1990 July; 127(1):126-32] are stably transfected with an expression vector for human GPR119 cDNA (Acc. No. NP_848566). Min-6/hGPR119 cells are cultured in DMEM, 10% FBS, 50 μM β-mercaptoethanol, 0.3 mg/mL Geniticin, 2 mM GlutaMAX at 37° C. 5% CO2. For the assay, the cells are seeded in Optiplates (white, 384-well, 160 W-barcoded, TC, sterile with lid, Cat. No. #6007688 (Perkin Elmer); 10000 cells/well; 50 μl). The plates covered with lids are then incubated for 24 hours at 37° C./5% CO2. After the medium is aspirated from the wells completely, 10 μl of the test compound are added, the compounds are diluted using stimulating buffer (140 mM NaCl, 3.6 mM KCl, 0.5 mM NaH2PO4, 0.5 mM MgSO4, 1.5 mM CaCl2, 10 mM Hepes, 5 mM NaHCO3; pH 7.4. 0.5 mM IBMX and 0.1% BSA, the final DMSO concentration is 1%). After 45 minutes incubation at room temperature (approx. 20° C.), the cAMP concentrations are determined using the AlphaScreen cAMP Assay Kit (Cat. No. #6760625R from PerkinElmer).

Regarding `O=C(c1ccc(-c2cnco2)cc1)N(C1CC1)C1CCN(c2nc(C3CCOCC3)no2)CC1` [Example 56, N-Cyclopropyl-4-oxazol-5-yl-N-{1-[3-(tetrahydro-pyran-4-yl)-[1,2,4]oxadiazol-5-yl]-piperidin-4-yl}-benzamide], the response was half-maximal at 159 nM (EC50). This lies in the sub-micromolar range.

With `C=CCCc1noc(N2CCC(N(C(=O)c3ccc(-c4cnco4)cc3)C3CC3)CC2)n1` [Example 57, N-[1-(3-But-3-enyl-[1,2,4]oxadiazol-5-yl)-piperidin-4-yl]-N-cyclopropyl-4-oxazol-5-yl-benzamide], the EC50 came to 22 nM. Against the preceding compound, the EC50 is about 7.2-fold lower.

`CC(C)(CO)c1noc(N2CCC(N(C(=O)c3ccc(-c4cnco4)cc3)C3CC3)CC2)n1` [Example 58, N-Cyclopropyl-N-{1-[3-(2-hydroxy-1,1-dimethyl-ethyl)-[1,2,4]oxadiazol-5-yl]-piperidin-4-yl}-4-oxazol-5-yl-benzamide] returned an EC50 of 629 nM.

Regarding `CCCc1nc(N2CCC(N(C(=O)c3ccc(-c4cnco4)cc3)C3CC3)CC2)no1` [Example 59, N-Cyclopropyl-4-oxazol-5-yl-N-[1-(5-propyl-[1,2,4]oxadiazol-3-yl)-piperidin-4-yl]-benzamide], it took 23 nM to reach a half-maximal effect (EC50).

As for `O=C(c1ccc(-c2cnco2)cc1)N(C1CC1)C1CCN(c2nc(CCC(F)(F)F)no2)CC1` [Example 60, N-Cyclopropyl-4-oxazol-5-yl-N-{1-[3-(3,3,3-trifluoro-propyl)-[1,2,4]oxadiazol-5-yl]-piperidin-4-yl}-benzamide], the EC50 is 50 nM.

Compound `Cc1cnc(N2CCC(N(C(=O)c3ccc(-c4cnco4)cc3)C3CC3)CC2)cn1` [Example 61, N-Cyclopropyl-N-[1-(5-methyl-pyrazin-2-yl)-piperidin-4-yl]-4-oxazol-5-yl-benzamide] came in with an EC50 of 52 nM.

On to `O=C(c1ccc(-c2cnco2)cc1)N(C1CC1)C1CCN(c2nc(CC(F)(F)F)no2)CC1` [Example 62, N-Cyclopropyl-4-oxazol-5-yl-N-{1-[3-(2,2,2-trifluoro-ethyl)-[1,2,4]oxadiazol-5-yl]-piperidin-4-yl}benzamide], for which the midpoint of the response, the EC50, lay at 16 nM.

Compound `CCc1cnc(N2CCC(N(C(=O)c3ccc(-c4cnco4)c(F)c3)C3CC3)CC2)nc1` [Example 63, N-Cyclopropyl-N-[1-(5-ethyl-pyrimidin-2-yl)-piperidin-4-yl]-3-fluoro-4-oxazol-5-yl-benzamide] had an EC50 of 3 nM.

With `CC(C)c1noc(N2CCC(N(C(=O)c3ccc(-c4cnco4)c(F)c3)C3CC3)CC2)n1` [Example 64, N-Cyclopropyl-3-fluoro-N-[1-(3-isopropyl-[1,2,4]oxadiazol-5-yl)-piperidin-4-yl]-4-oxazol-5-yl-benzamide], the EC50 stood at 4 nM. This EC50 and that of the compound before are within 1.5-fold of each other.

With `CCCc1noc(N2CCC(N(C(=O)c3ccc(-c4cnco4)c(F)c3)C3CC3)CC2)n1` [Example 65, N-Cyclopropyl-3-fluoro-4-oxazol-5-yl-N-[1-(3-propyl-[1,2,4]oxadiazol-5-yl)-piperidin-4-yl]-benzamide], a half-maximal response (EC50) required 7 nM.

`Cc1cnc(N2CCC(N(C(=O)c3ccc(-c4cnco4)c(F)c3)C3CC3)CC2)cn1` [Example 66, N-Cyclopropyl-3-fluoro-N-[1-(5-methyl-pyrazin-2-yl)-piperidin-4-yl]-4-oxazol-5-yl-benzamide] returned an EC50 of 210 nM.

Consider `CC(C)(C)c1noc(N2CCC(N(C(=O)c3ccc(-c4cnco4)c(F)c3)C3CC3)CC2)n1` [Example 67, N-[1-(3-tert-Butyl-[1,2,4]oxadiazol-5-yl)-piperidin-4-yl]-N-cyclopropyl-3-fluoro-4-oxazol-5-yl-benzamide], for which the EC50 came to 188 nM.

`CCc1cnc(N2CCC(N(C(=O)c3ccc(-c4cnco4)c(F)c3)C3CC3)CC2)cn1` [Example 68, N-Cyclopropyl-N-[1-(5-ethyl-pyrazin-2-yl)-piperidin-4-yl]-3-fluoro-4-oxazol-5-yl-benzamide] returned an EC50 of 211 nM. This EC50 and that of the compound before are within 1.5-fold of each other.

The compound `CC(C)c1noc(N2CCC(N(C(=O)c3cc(F)c(-c4cnco4)c(F)c3)C3CC3)CC2)n1` [Example 69, N-Cyclopropyl-3,5-difluoro-N-[1-(3-isopropyl-[1,2,4]oxadiazol-5-yl)-piperidin-4-yl]-4-oxazol-5-yl-benzamide] displayed a concentration for a half-maximal effect (EC50) of 198 nM. This EC50 and that of the compound before are within 1.5-fold of each other.

For the compound `Cc1cnc(N2CCC(N(C(=O)c3ccc(-c4cnco4)c(F)c3)C3CC3)CC2)nc1` [Example 70, N-Cyclopropyl-3-fluoro-N-[1-(5-methyl-pyrimidin-2-yl)-piperidin-4-yl]-4-oxazol-5-yl-benzamide], the EC50 was 191 nM. This EC50 and that of the compound before are within 1.5-fold of each other.

As for `O=C(c1ccc(-c2cnco2)cc1)N(C1CC1)C1CCN(c2ncc(Br)cc2F)CC1` [Example 71, N-(5′-Bromo-3′-fluoro-3,4,5,6-tetrahydro-2H-[1,2′]bipyridinyl-4-yl)-N-cyclopropyl-4-oxazol-5-yl-benzamide], the EC50 was 11 nM.

The compound `O=C(c1ccc(-c2cnco2)cc1)N(C1CC1)C1CCN(c2ccc(C3CC3)nn2)CC1` [Example 72, N-Cyclopropyl-N-[1-(6-cyclopropyl-pyridazin-3-yl)-piperidin-4-yl]-4-oxazol-5-yl-benzamide] gave an EC50 of 864 nM. Compared with the last compound, the EC50 is about 79-fold higher.

On to `Cc1cnc(N2CCC(N(C(=O)c3ccc(-c4cnco4)cc3)C3CC3)CC2)c(F)c1` [Example 73, N-Cyclopropyl-N-(3′-fluoro-5′-methyl-3,4,5,6-tetrahydro-2H-[1,2′]bipyridinyl-4-yl)-4-oxazol-5-yl-benzamide], for which the EC50 stood at 38 nM.

With `O=C(c1ccc(-c2cnco2)cc1)N(C1CC1)C1CCN(c2ncc(C(F)(F)F)cc2F)CC1` [Example 74, N-Cyclopropyl-N-(3′-fluoro-5′-trifluoromethyl-3,4,5,6-tetrahydro-2H-[1,2′]bipyridinyl-4-yl)-4-oxazol-5-yl-benzamide], the EC50 is 8 nM.

Regarding `CCCOc1cnc(N2CCC(N(C(=O)c3ccc(-c4cnco4)cc3)C3CC3)CC2)nc1` [Example 75, N-Cyclopropyl-4-oxazol-5-yl-N-[1-(5-propoxy-pyrimidin-2-yl)-piperidin-4-yl]-benzamide], the EC50 came out at 87 nM.

Consider `CCOc1cnc(N2CCC(N(C(=O)c3ccc(-c4cnco4)cc3)C3CC3)CC2)nc1` [Example 76, N-Cyclopropyl-N-[1-(5-ethoxy-pyrimidin-2-yl)-piperidin-4-yl]-4-oxazol-5-yl-benzamide], for which a half-maximal effect (EC50) was put at 165 nM. Compared with the last compound, the EC50 is about 1.9-fold higher.

Take `CC(C)Oc1cnc(N2CCC(N(C(=O)c3ccc(-c4cnco4)cc3)C3CC3)CC2)nc1` [Example 77, N-Cyclopropyl-N-[1-(5-isopropoxy-pyrimidin-2-yl)-piperidin-4-yl]-4-oxazol-5-yl-benzamide]: the EC50 amounted to 115 nM.

Consider `O=C(c1ccc(-c2cnco2)cc1)N(C1CC1)C1CCN(c2cnc(C3CC3)cn2)CC1` [Example 78, N-Cyclopropyl-N-[1-(5-cyclopropyl-pyrazin-2-yl)-piperidin-4-yl]-4-oxazol-5-yl-benzamide], for which the half-maximal effective concentration (EC50) was 43 nM. This EC50 is about 2.7-fold lower than that of the compound before.

For the compound `O=C(c1ccc(-c2cnco2)cc1)N(C1CC1)C1CCN(c2nnc(-c3ccccc3)s2)CC1` [Example 79, N-Cyclopropyl-4-oxazol-5-yl-N-[1-(5-phenyl-[1,3,4]thiadiazol-2-yl)-piperidin-4-yl]-benzamide], it took 75 nM to reach a half-maximal effect (EC50).

In turn, `O=C(c1ccc(-c2cnco2)cc1)N(C1CC1)C1CCN(c2ccc(Cl)cn2)CC1` [Example 80, N-(5′-Chloro-3,4,5,6-tetrahydro-2H-[1,2′]bipyridinyl-4-yl)-N-cyclopropyl-4-oxazol-5-yl-benzamide] yielded an EC50 of 179 nM.

In turn, `COC(=O)c1cnc(N2CCC(N(C(=O)c3ccc(-c4cnco4)cc3)C3CC3)CC2)cn1` [Example 81, 5-{4-[Cyclopropyl-(4-oxazol-5-yl-benzoyl)-amino]-piperidin-1-yl}-pyrazine-2-carboxylic acid methyl ester] registered an EC50 of 498 nM.

`Cc1cnc(C)c(N2CCC(N(C(=O)c3ccc(-c4cnco4)cc3)C3CC3)CC2)n1` [Example 82, N-Cyclopropyl-N-[1-(3,6-dimethyl-pyrazin-2-yl)-piperidin-4-yl]-4-oxazol-5-yl-benzamide] returned an EC50 of 116 nM.

Take `O=C(c1ccc(-c2cnco2)cc1)N(C1CC1)C1CCN(c2cnc(I)cn2)CC1` [Example 83, N-Cyclopropyl-N-[1-(5-iodo-pyrazin-2-yl)-piperidin-4-yl]-4-oxazol-5-yl-benzamide]: the EC50 is 10 nM.

`COC(=O)c1cnc(N2CCC(N(C(=O)c3ccc(-c4cnco4)cc3)C3CC3)CC2)nc1` [Example 84, 2-{4-[Cyclopropyl-(4-oxazol-5-yl-benzoyl)-amino]-piperidin-1-yl}-pyrimidine-5-carboxylic acid methyl ester] showed an EC50 of 116 nM.
